Experimental data: patent US20240116937A1, “Polymorph of (1S,2S,3S,5R)-3-((6-(difluoromethyl)-5-fluoro-1,2,3,4-tetrahydroisoquinolin-8-yl)oxy)-5-(4-methyl-7H-pyrrolo[2,3-D]pyrimidin-7-yl)cyclopentane-1,2-diol” (Pfizer Inc., priority 2020, published 2024)

Assay: Hygroscopicity: % mass change (ref dry mass) versus RH, free base compared to hydrochloride salt
Type: physicochemical
From the text: Hygroscopicity of Free Base (1S,2S,3S,5R)-3-((6-(difluoromethyl)-5-fluoro-1,2,3,4-tetrahydroisoquinolin-8-yl)oxy)-5-(4-methyl-7H-pyrrolo[2,3-d]pyrimidin-7-yl)cyclopentane-1,2-diol Compared to Crystalline (1S,2S,3S,5R)-3-((6-(difluoromethyl)-5-fluoro-1,2,3,4-tetrahydroisoquinolin-8-yl)oxy)-5-(4-methyl-7H-pyrrolo[2,3-d]pyrimidin-7-yl)cyclopentane-1,2-diol hydrochloride salt

physical stability (hygroscopicity) relative to the dihydrochloride salt of WO2017/212385: low hygroscopicity
% Mass-Ref Dry mass (RH 10): 0.1%
% Mass-Ref Dry mass (RH 20): 0.3%
% Mass-Ref Dry mass (RH 30): 0.4%
% Mass-Ref Dry mass (RH 40): 1.8%
% Mass-Ref Dry mass (RH 50): 2.0%
% Mass-Ref Dry mass (RH 60): 2.1%
% Mass-Ref Dry mass (RH 70): 2.2%
% Mass-Ref Dry mass (RH 80): 2.2%
% Mass-Ref Dry mass (RH 90): 2.3%
Structure (SMILES): Cc1ncnc2c1ccn2[C@@H]1C[C@H](Oc2cc(C(F)F)c(F)c3c2CNCC3)[C@@H](O)[C@H]1O [Free Base, (1S,2S,3S,5R)-3-((6-(difluoromethyl)-5-fluoro-1,2,3,4-tetrahydroisoquinolin-8-yl)oxy)-5-(4-methyl-7H-pyrrolo[2,3-d]pyrimidin-7-yl)cyclopentane-1,2-diol]
